Common to all, as to experiment: NCI-60 cell line screen, 48 h
The subject of assay [1] is OVCAR-4 ovarian.
The subject of assay [2] is EKVX NSCLC.
Assay [3] concerns RXF 393 renal.
For assay [4], the system named is OVCAR-5 ovarian.
In assay [5] the test system is HCT-15 colon.
In assay [6] the test system is SK-MEL-28 melanoma.
The test system of assay [7] is NCI-H23 lung.
The test system of assay [8] is UACC-257 melanoma.
In assay [9] the test system is A549 NSCLC.
Assay [10] has as its system SNB-19 CNS.

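96-well plates; 48 h exposure; 5 concentrations. Endpoints by linear interpolation between flanking doses. Not reached: highest tested concentration assigned. GI50: concentration for 50% inhibition of growth. TGI: concentration producing complete growth inhibition.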

Take `CC1=Nc2ccccc2NC(c2ccoc2)C1` (stereo not given): the TGI in assay [1], in [2], in assay [3], in assay [4], in assay [5] and in assay [6] was > 100 µM in each case. Moreover, the TGI in assay [7], in [8], in assay [9] and in assay [10] was > 100 µM each time.

`C=CCC(N[C@@H](CO)c1ccccc1)c1cn(Cc2ccccc2Cl)c(=O)n(Cc2ccccc2Cl)c1=O` (stereo not given in full): the GI50 in assay [1], in assay [2], in assay [3], in assay [4], in assay [5] and in assay [6] was > 100 µM throughout. In addition, the GI50 in assay [7], in assay [8], in assay [9] and in assay [10] was > 100 µM in each case. For the same compound, the TGI in [1], in assay [2], in assay [3], in [4], in assay [5] and in assay [6] was > 100 µM each time. For the same compound, the TGI in assay [7], in assay [8], in assay [9] and in assay [10] was > 100 µM throughout.

Regarding `COC(=O)C1=Cc2cc(OC)c(OC)c(OC)c2[C@H](c2cc(OC)c(OC)c(OC)c2)C1C(=O)OC` (stereo not given in full), the TGI in assay [1], in assay [2], in assay [3], in [4], in assay [5] and in assay [6] was > 100 µM each time. For the same compound, the TGI in [7], in assay [8], in assay [9] and in assay [10] was > 100 µM each time.

`CSC1=Nc2c(c(C)c(-c3ccccc3)n2CCCN2CCCCC2)C2=NC(=O)C[C@H](C)N12`: the GI50 was 3.21 µM in assay [1]; 3.06 µM in assay [2]; 2.56 µM in [3]; 11.3 µM in assay [4]; 8.41 µM in [5]; 3.32 µM in assay [6]. The GI50 was 3.08 µM in [7], 4.37 µM in [8], 3.57 µM in assay [9] and 3.08 µM in [10]. In addition, the TGI in assay [1] was 37.7 µM; in [2], > 44.7 µM; in assay [3], 10.2 µM; in assay [4], > 100 µM; in assay [5], > 53.2 µM; in [6] it was 14.9 µM. Moreover, the TGI was > 46.4 µM in [7], 27.5 µM in assay [8], > 32.6 µM in assay [9] and > 94.6 µM in assay [10].

Turning to `CCCCCCCC/C=C/CCCCCCCC1=NC(C)(C)CN1CC(C)O` (stereo not given), the GI50 is 3.08 µM in assay [1]; 4.84 µM in [2]; 1.53 µM in [3]; 3.6 µM in assay [4]; 1.63 µM in [5]; 1.74 µM in assay [6]. Also, the GI50 in [7] was 3.11 µM; in assay [8], 1.85 µM; in [9], 1.8 µM; in [10], 5.54 µM. In addition, the TGI in assay [1] worked out at 11.1 µM; in assay [2], 18.2 µM; in [3], 3.39 µM; in [4], 10.4 µM; in assay [5], 3.27 µM; in [6], 3.19 µM. Also, the TGI in assay [7] was found to be 7.99 µM; in assay [8], 3.54 µM; in assay [9] it was 3.42 µM; in assay [10], 17.7 µM.

For `Cc1c(O)c2ccccc2oc1=O`, the TGI in assay [1], in [2], in [3], in assay [4], in assay [5] and in assay [6] was > 100 µM each time. The TGI in assay [7], in assay [8], in [9] and in [10] was > 100 µM throughout.

`COc1ccc(N=Cc2c(O)ccc3c2oc2cc(Cl)c(O)c(Cl)c23)cc1`: the GI50 in assay [1] was 16.3 µM; in [2], 10.7 µM; in assay [3], 14.2 µM; in assay [4], 17.5 µM; in assay [5], 7.38 µM; in assay [6], 15.9 µM. The GI50 is 12.2 µM in assay [7], 15.9 µM in assay [8], 14.5 µM in assay [9] and 13.9 µM in assay [10]. Moreover, the TGI is > 100 µM in assay [1]; 38 µM in assay [2]; 31.4 µM in assay [3]; 38.9 µM in assay [4]; 25.7 µM in assay [5]; 40.4 µM in [6]. For the same compound, the TGI in assay [7] was found to be 42.5 µM; in assay [8], 48.8 µM; in [9], 48.2 µM; in assay [10], 79.8 µM.

Consider `O=C(/C=C/c1ccco1)c1cc(F)c(Cl)cc1Cl`, for which the GI50 in assay [1] is 22 µM; in assay [2] it was 17.1 µM; in [3], 19.1 µM; in [4] it was 22.5 µM; in [5], 21.5 µM; in assay [6], 22.7 µM. The GI50 was 31 µM in [7], 24.6 µM in assay [8], 22 µM in [9] and 20 µM in assay [10]. Also, the TGI in assay [1] is 72.3 µM; in assay [2], 37.3 µM; in assay [3], 37.7 µM; in assay [4], 48.9 µM; in assay [5], 55.8 µM; in assay [6] it was 50.2 µM. The TGI in assay [7] is > 100 µM; in [8], 50.5 µM; in assay [9] it was 70.7 µM; in [10], 48.4 µM.

These data come from PubChem BioAssay (NCI).
